Tests used:
[1] = target: T1, human serum albumin (HSA) (Homo sapiens, UniProt P02768); experiment: Albumin-mediated size exclusion chromatography (AMSEC); type: in vitro ADME; settings: for tR,AMSEC (retention time in AMSEC run): 177Lu-labeled ligand, mobile phase 700 µM HSA in PBS pH 7.4, Superdex 75 Increase, corrected for detector offset, normalized to column 1; for Retention factor k: fraction of time the radioligand is complexed to HSA during the AMSEC run, Equation (2); for MWapp,raw (raw apparent molecular weight): from tR,AMSEC by column calibration, 700 µM HSA in PBS pH 7.4; for MWapp,norm. (normalized apparent molecular weight): from tR,norm. by column calibration; for tR,norm. (normalized retention time): normalized with tR,blank, tR,HSA and tR,acetone, Equation (5)
T1 construct: purchased Biowest, Nuaillé, France
T1 sequence (P02768 25-609): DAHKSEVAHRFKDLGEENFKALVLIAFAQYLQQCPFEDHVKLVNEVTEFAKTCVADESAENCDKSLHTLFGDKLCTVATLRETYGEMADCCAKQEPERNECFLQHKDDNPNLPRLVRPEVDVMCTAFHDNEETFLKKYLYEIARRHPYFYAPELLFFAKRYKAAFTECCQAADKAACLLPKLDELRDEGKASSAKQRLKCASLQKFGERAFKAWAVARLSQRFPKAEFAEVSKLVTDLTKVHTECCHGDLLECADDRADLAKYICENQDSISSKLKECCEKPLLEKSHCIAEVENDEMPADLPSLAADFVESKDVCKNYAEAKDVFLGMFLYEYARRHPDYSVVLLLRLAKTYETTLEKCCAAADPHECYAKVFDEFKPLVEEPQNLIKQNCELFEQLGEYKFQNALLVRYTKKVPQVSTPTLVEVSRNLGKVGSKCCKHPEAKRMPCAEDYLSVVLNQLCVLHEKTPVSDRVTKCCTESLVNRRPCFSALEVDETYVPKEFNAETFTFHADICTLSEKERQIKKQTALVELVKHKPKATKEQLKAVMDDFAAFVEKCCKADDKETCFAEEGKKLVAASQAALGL
Protocol: All size exclusion chromatographic (SEC) experiments were carried out using the above-mentioned HPLC system equipped with a Superdex 75 Increase 10/300 GL gel filtration size exclusion column (fractionation range 70–3 kDa, GE Healthcare, Uppsala, Sweden). Eluents at room temperature, a constant flow rate of 0.8 mL/min, and an acquisition time of 35 min were generally applied. The column was calibrated as recommended by the manufacturer using a commercially available set of proteins (Gel Filtration LMW Calibration Kit, GE Healthcare, Buckinghamshire, UK). Retention times of calibration proteins and calculated calibration parameters are given in the Supplementary Materials (Table S3). UV signal detection occurred at 280 nm.
All retention times of radio signals were corrected for the offset between the UV-vis detector and radio-detector (Δt = 0.084 min). Throughout the development of the AMSEC method, three gel filtration columns of the same type were used for experiments (most data were acquired using column 1). As calculations were based on absolute empirical retention times that inherently differed slightly from column to column, all retention times determined on column 2 and column 3 were mathematically converted to an equivalent retention time on column 1 using the columns’ calibration parameters. A detailed description of these calculations is provided in the Supplementary Materials.
All numerical retention times explicitly given in running text or tables and plotted in diagrams are already corrected for the offset between UV-vis and radio-detector and, if initially determined on columns 2 or 3, converted to the equivalent retention time on column 1 (for detailed information, see Equations (S1) and (S2) and Table S1 in the Supplementary Materials).
AMSEC runs were executed with a solution of HSA (Biowest, Nuaillé, France) in PBS (pH 7.4) at physiological concentration (700 µM) as a mobile phase. Upon injection of approximately 1.0 MBq (5–10 µL) of a radioligand, the elution profile was monitored via radioactivity detection, and the retention times of observed radiopeaks (tR,AMSEC) were determined via semi-automated peak integration. By means of calibration, retention times were translated into a ligand-specific raw apparent molecular weight (MWapp,raw) as a parameter to assess the extent of HSA binding (for calculation, see Equation (S6) in the Supplementary Materials). rhPSMA-7.3 served as an internal standard during AMSEC studies and was co-evaluated whenever new data were collected to assess the reproducibility of the method (n = 14).
For reference purposes, conventional SEC runs of HSA (100 µL, 3 mg/mL) and acetone (100 µL, 2% in PBS pH 7.4) with PBS (pH 7.4) as a mobile phase were executed. The retention time of HSA (tR,HSA) corresponded to the maximal MWapp,raw, theoretically observable in AMSEC runs in the case of continuous binding of a radioligand to HSA (equivalent to 100% HSA binding). The retention time of acetone (tR,acetone) served as a reference for a ligand with no interaction with HSA in AMSEC runs (equivalent to 0% HSA binding) and an actual physical molecular weight below the column fractionation range (this was the case for all investigated radioligands).
MWapp,raw values determined as described in Section 3.3.1. were normalized in order to account for ligand-specific influences on experimentally determined retention times and to establish quantitative comparability of the obtained MWapp,norm. values. The normalization was based on a SEC run (referred to as blank run) of a radioligand executed in analogy to the AMSEC run but using PBS (pH 7.4) without HSA as a mobile phase. The determined retention time tR,blank, together with the retention time tR,AMSEC from the AMSEC run, tR,HSA, and tR,acetone determined in Section 3.3.1, were used to calculate a normalized retention time tR,norm. for every radioligand (for formulae and details on the calculation, see Section 2. Results and Discussion). […]

[2] = Calculated glomerular sieving coefficients (GSCcalc) from MWapp,norm.; settings: from MWapp,norm. via sigmoidal fit of MW vs GSC of 12 human plasma proteins
Excerpt: Therefore, when comparing the MWapp,norm. of different radioligands, not only their relative difference but also the absolute values of MWapp,norm. are of importance. […] These GSCcalc determined for all the PSMA radioligands (Table 2, Figure 5) inherently account for the exponential nature of the relationship between their albumin-mediated MWapp,norm. and MW-dependent GF and could, therefore, be a useful parameter to estimate differences in blood clearance by means of GF. The GSC is defined as the ratio of a compound’s concentration in the glomerular filtrate to that in the blood; thus, a GSC of 1 represents unhindered filtration through the capillary membrane in the glomerulus, while a lower GSC corresponds to a restricted filtration and, thus, a prolonged circulatory half-life. […] As an example, a GSCcalc of 0.408 was determined for rhPSMA-7.3, while an almost three-fold smaller GSCcalc of 0.138 was determined for rhPSMA-7.4. […] This would constitute a dramatic physiological effect that, in its extent, could not be predicted only based on subtle differences in molecular structure and other conventionally determined in vitro parameters. We, therefore, believe that the MWapp,norm. and GSCcalc obtained by AMSEC could be important parameters that, already at the preclinical stage of development, could help in the selection of promising therapeutic radioligands with pharmacokinetic profiles suitable for patient application.
A sigmoidal fit of molecular weights (MWs, in kDa) and corresponding glomerular sieving coefficients (GSCs) of 12 human plasma proteins (data taken from Norden et al.) was executed using OriginPro software. A dose-response model based on Equation (6) was applied:(6) GSC=A1+A2−A1/1+10^(LOGx0−MW)·p.
The values of bottom asymptote A1 and top asymptote A2 were set to 4.2∙10^−5 (GSC of IgG, data taken from Norden et al.) and 1 (equaling complete sieving), respectively. Curve fitting gave the center parameter LOGx0 = 19.36833 and the Hill slope p = −0.12108. GSCcalc values were calculated via implementation of fitting parameters and the experimentally determined MWapp,norm. in Equation (6).

Compound | tR,AMSEC (retention time in AMSEC run) [1] [min] | Retention factor k [1] | MWapp,raw (raw apparent molecular weight) [1] [kDa] | MWapp,norm. (normalized apparent molecular weight) [1] [kDa] | tR,norm. (normalized retention time) [1] [min] | MWapp,raw in percentage of the MWapp,raw of rhPSMA-7.3 ([1]; rhPSMA-7.3 = 100%) [%] | GSCcalc (calculated glomerular sieving coefficient) [2] | MWapp,norm. higher than that of the stereoisomer ([1]; rhPSMA-7.2 vs rhPSMA-7.1, rhPSMA-10.1 vs rhPSMA-10.2) [%]
CC(C)(C)[Si](F)(c1ccc(C(=O)NC[C@H](NC(=O)CC[C@@H](C(=O)O)N2CCN(CC(=O)[O-])CCN(CC(=O)[O-])CCN(CC(=O)[O-])CC2)C(=O)N[C@H](CCCCNC(=O)CCC(=O)NCCC[C@@H](NC(=O)CC[C@H](NC(=O)N[C@@H](CCC(=O)O)C(=O)O)C(=O)O)C(=O)O)C(=O)O)cc1)C(C)(C)C.[177Lu+3] [rhPSMA-7.4] | 14.143 | 0.729 | 36.0 | 26.0 | 15.316 | ~120 | 0.138 | –
CC(C)(C)[Si](F)(c1ccc(C(=O)NC[C@@H](NC(=O)CC[C@H](C(=O)O)N2CCN(CC(=O)[O-])CCN(CC(=O)[O-])CCN(CC(=O)[O-])CC2)C(=O)N[C@H](CCCCNC(=O)CCC(=O)NCCC[C@@H](NC(=O)CC[C@H](NC(=O)N[C@@H](CCC(=O)O)C(=O)O)C(=O)O)C(=O)O)C(=O)O)cc1)C(C)(C)C.[177Lu+3] [rhPSMA-7.1] | 15.240 | 0.613 | 26.5 | 17.1 | 16.824 | – | 0.655 | –
CC(C)(C)[Si](F)(c1ccc(C(=O)NC[C@H](NC(=O)CN2CCN(CC(=O)[O-])CCN(CC(=O)[O-])CCN(CC(=O)[O-])CC2)C(=O)N[C@H](CCCCNC(=O)CCC(=O)NCCC[C@@H](NC(=O)CC[C@H](NC(=O)N[C@@H](CCC(=O)O)C(=O)O)C(=O)O)C(=O)O)C(=O)O)cc1)C(C)(C)C.[177Lu+3] [rhPSMA-10.2] | 15.908 | 0.543 | 22.0 | 13.2 | 17.736 | – | 0.846 | –
CC(C)(C)[Si](F)(c1ccc(C(=O)NC[C@H](NC(=O)CC[C@H](C(=O)O)N2CCN(CC(=O)[O-])CCN(CC(=O)[O-])CCN(CC(=O)[O-])CC2)C(=O)N[C@H](CCCCNC(=O)CCC(=O)NCCC[C@@H](NC(=O)CC[C@H](NC(=O)N[C@@H](CCC(=O)O)C(=O)O)C(=O)O)C(=O)O)C(=O)O)cc1)C(C)(C)C.[177Lu+3] [rhPSMA-7.2] | 14.564 | 0.680 | 32.0 | 21.7 | 15.962 | – | 0.344 | 27

From paper PMC9500755, “Albumin-Mediated Size Exclusion Chromatography: The Apparent Molecular Weight of PSMA Radioligands as Novel Parameter to Estimate Their Blood Clearance Kinetics” (Pharmaceuticals, 2022)
